Assay results taken from ChEMBL document CHEMBL1158749, “Cytotoxic cembranoid diterpenes from a soft coral Sinularia gibberosa” (J Nat Prod, 2005).
≈ marks a conversion by molar mass, not a printed value.

Legend:
Assay type in all cases: functional, cell-based
[1] = test system: MDA-MB-435; experiment: Cytotoxicity against human MDA-MB-435 cells by SRB assay
[2] = test system: HL-60; experiment: Cytotoxicity against human HL60 cells by MTT assay
[3] = test system: BGC-823; experiment: Cytotoxicity against human BGC823 cells by SRB assay

| Compound | IC50 [1] [µg/mL] | IC50 [2] [µg/mL] | IC50 [3] [µg/mL] |
| --- | --- | --- | --- |
| C=C1C(=O)O[C@@H]2[C@@H]1C[C@H](O)[C@@](O)(CO)CC/C=C(\C)CC/C=C(\C)[C@@H]2O [SINULAROLIDE A] | > 10 | > 10 | > 10 |
| C=C1C(=O)O[C@@H]2[C@@H]1C[C@H]1O[C@]1(CO)CC/C=C(\C)CC/C=C(\C)[C@H]2O [SINULAROLIDE B] | 8 (≈ 23 µM) | 5.2 (≈ 14.9 µM) | 6.3 (≈ 18.1 µM) |
| C=C1C(=O)O[C@@H]2[C@@H]1C[C@H]1O[C@]1(CO)CC/C=C(\C)CC/C=C(\C)[C@@H]2O [SINULAROLIDE C] | 7.7 (≈ 22.1 µM) | 5.1 (≈ 14.6 µM) | 5.2 (≈ 14.9 µM) |
| C=C1C(=O)O[C@H]2C/C(C)=C/CC/C(C)=C/CC[C@@]3(CO)O[C@@H]3C[C@H]12 [SINULAROLIDE D] | > 10 | 2.3 (≈ 6.92 µM) | 6.1 (≈ 18.3 µM) |
| C=C1C(=O)O[C@@H]2[C@@H]1C[C@@H]1O[C@]1(C)CC/C=C(\C)CC/C=C(\C)[C@@H]2O [SINULAROLIDE E] | 2.1 (≈ 6.32 µM) | 6 (≈ 18 µM) | 8.6 (≈ 25.9 µM) |
